Measured values from patent publication US20200289474A1, “METHODS OF TREATING PAIN WITH A THIAZOLINE ANTI-HYPERALGESIC” (priority 2019, published 2020).

Assay: rat 28-day GLP repeat dose PO study (toxicokinetics)
Type: in vivo
Method: A 28-day GLP repeat dose study with Compound 1 in rats was conducted with oral gavage doses of 0, 500, 1000 or 2000 mg/kg/day at a dosing volume of 10 mL/kg. The vehicle was 0.5% HPMC. There were 15 rats/sex in the control and high dose groups (5/sex for a 14-day recovery period) while the low and mid doses consisted of 10 rats/sex. Satellite groups of rats/sex/group for toxicokinetics were included.
Rats in Group 1 (Vehicle Control) were bled once at approximately 1 hour post-dose on those days.

[1] = female, rat, in vivo, po, 500 mg/kg
[2] = rat 28-day PO, Day 1, F, 1000 mg/kg
[3] = rat 28-day PO, Day 1, F, 2000 mg/kg
[4] = rat 28-day PO, Day 1, M, 500 mg/kg
[5] = rat 28-day PO, Day 1, M, 1000 mg/kg
[6] = rat 28-day PO, Day 1, M, 2000 mg/kg
[7] = rat 28-day PO, Day 14, F, 500 mg/kg
[8] = rat 28-day PO, Day 14, F, 1000 mg/kg
[9] = rat 28-day PO, Day 14, F, 2000 mg/kg
[10] = rat 28-day PO, Day 14, M, 500 mg/kg
[11] = rat 28-day PO, Day 14, M, 1000 mg/kg

CC1(C)SC(Nc2ccccc2O)=N[C@@H]1C(=O)O.Cl [Compound 1, (R)-2-(2-hydroxyphenylamino)-5,5-dimethyl-4,5-dihydrothiazole-4-carboxylic acid mono-hydrochloride]
Cmax at 28 days (both sexes, in vivo, po, rat 28-day pivotal study, at some doses): > 100 µg/mL | Tmax at 28 days (both sexes, in vivo, po, rat 28-day study (summary)): ≤ 1 h | CL/F at 28 days (both sexes, in vivo, rat 28-day PO, read-out: overall mean CL/F (converted)): 35.2 mL/min/kg | half-life at 28 days (both sexes, in vivo, rat 28-day PO, read-out: overall mean t1/2 (converted)): 4.24 h | half-life (both sexes, rat, in vivo, po): 3 to 8 h | overall mean V/F (both, rat, in vivo, po, 28 days): 12.5 L/kg | AUC [1]: 298 µg·h/mL | AUC(0-inf) [1]: 299 µg·h/mL | CL/F [1]: 27.8 mL/min/kg | Cmax [1]: 74.8 µg/mL | Vd/F [1]: 8.1 L/kg | half-life [1]: 3.36 h | tmax [1]: 2 h | half-life (female, rat, in vivo, po, 2000 mg/kg): 8.05 h | CL/F (male, rat, in vivo, po, 1000 mg/kg): 38.7 mL/min/kg | CL/F (male, rat, in vivo, po, 2000 mg/kg): 35.3 mL/min/kg | AUCINF [2]: 794 µg·h/mL | AUCTAU [2]: 788 µg·h/mL | CL/F (CLz/F) [2]: 21 mL/min/kg | Cmax [2]: 108 µg/mL | t1/2 [2]: 3.39 h | AUCINF [3]: 1324 µg·h/mL | AUCTAU [3]: 1161 µg·h/mL | CL/F (CLz/F) [3]: 25.2 mL/min/kg | Cmax [3]: 118 µg/mL | AUCINF [4]: 275 µg·h/mL | AUCTAU [4]: 270 µg·h/mL | CL/F (CLz/F) [4]: 30.3 mL/min/kg | Cmax [4]: 55.1 µg/mL | t1/2 [4]: 4.18 h | AUCINF [5]: 460 µg·h/mL | AUCTAU [5]: 456 µg·h/mL | CL/F (CLz/F) [5]: 36.2 mL/min/kg | Cmax [5]: 52.7 µg/mL | t1/2 [5]: 3.46 h | AUCINF [6]: 771 µg·h/mL | AUCTAU [6]: 768 µg·h/mL | CL/F (CLz/F) [6]: 43.2 mL/min/kg | Cmax [6]: 83.1 µg/mL | t1/2 [6]: 2.81 h | AUCINF [7]: 225 µg·h/mL | AUCTAU [7]: 223 µg·h/mL | CL/F (CLss/F) [7]: 37.5 mL/min/kg | Cmax [7]: 75.0 µg/mL | t1/2 [7]: 4.20 h | AUCINF [8]: 437 µg·h/mL | AUCTAU [8]: 430 µg·h/mL | CL/F (CLss/F) [8]: 38.7 mL/min/kg | Cmax [8]: 96.3 µg/mL | t1/2 [8]: 4.19 h | AUCINF [9]: 952 µg·h/mL | AUCTAU [9]: 942 µg·h/mL | CL/F (CLss/F) [9]: 35.3 mL/min/kg | Cmax [9]: 127 µg/mL | t1/2 [9]: 3.56 h | AUCINF [10]: 258 µg·h/mL | AUCTAU [10]: 244 µg·h/mL | CL/F (CLss/F) [10]: 34.2 mL/min/kg | Cmax [10]: 45.8 µg/mL | t1/2 [10]: 6.27 h | AUCINF [11]: 296 µg·h/mL | AUCTAU [11]: 293 µg·h/mL | Cmax [11]: 51.9 µg/mL | t1/2 [11]: 3.68 h | AUCINF (rat 28-day PO, Day 14, M, 2000 mg/kg): 709 µg·h/mL
